According to patent US12065436B2, “Cardiac sarcomere inhibitors” (Cytokinetics, Inc., priority 2018, dated 2024):
Like-named read-outs stand apart in the source and are kept apart here.

Key:
[1] = test system: adult cardiac ventricular rat myocytes; assay: Adult ventricular myocyte contractility (fractional shortening); assay type: cell-based; conditions: 5 min, 5 min perfusion, read-out: % FS (% reduction from baseline) ± SEM; for inhibition at 10 µM: 10 μM compound; for inhibition at 5 µM: 5 μM compound
Description: Adult male Sprague-Dawley rats were anesthetized and the hearts were quickly excised, rinsed and the ascending aorta was cannulated. Continuous retrograde perfusion was initiated on the hearts at a perfusion pressure of 60 cm H2O. Hearts were first perfused with a nominally Ca^2+-free modified Krebs solution of the following composition: 113 mM NaCl, 4.7 mM KCl, 0.6 mM KH2PO4, 0.6 mM Na2HPO4, 1.2 mM MgSO4, 12 mM NaHCO3, 10 mM KHCO3, 30 mM taurine, 5.5 mM glucose and 10 mM Hepes (all Sigma). This medium is not recirculated and is continually aerated with a 95% O2/5% CO2 mixture. After approximately 3 minutes the heart was perfused with a modified Krebs buffer supplemented with collagenase (Worthington) and 12.5 μM final calcium concentration. The heart was removed from the cannulae after the heart appeared blanched and soft in appearance. The atria and vessels were removed and the ventricles were gently dissected into smaller pieces with forceps. The tissue was homogenized by repeated pipette trituration and the collagenase reaction was stopped by 10% bovine calf serum (BCS), sedimentation and resuspension in perfusion buffer containing 5% BCS and 12.5 uM CaCl2). Myocytes were made calcium tolerant by stepwise addition of a CaCl2) solution to a final concentration of 1.2 mM. Cells were then washed and resuspended in Tyrode's buffer (137 mM NaCl, 3.7 mM KCl, 0.5 mM MgCl, 11 mM glucose, 4 mM Hepes, and 1.2 mM CaCl2), pH 7.4). Cells were kept for 60 min at 37° C. prior to initiating experiments and used within 5 hrs of isolation. […] Additionally, only cells whose basal contractility was between 3 and 8% were used in subsequent experiments with compounds.
Aliquots of myocytes in Tyrode's buffer were placed in perfusion chambers (series 20 RC-27NE; Warner Instruments) complete with heating platforms. Myocytes were allowed to attach, the chambers were heated to 37° C., and the cells were perfused with 37° C. Tyrode's buffer. Myocytes were field stimulated at 1 Hz in with platinum electrodes (20% above threshold). Only cells that had clear striations and were quiescent prior to pacing were used for contractility experiments. To determine basal contractility, myocytes were imaged through a 40× objective. […] Once cell contraction was stable over time, test compounds (0.01-15 μM) were perfused into the chambers on the myocytes for 5 minutes. Contractility of the myocytes and contraction and relaxation velocities were then recorded using edge detection.
Five or more individual myocytes were tested per compound from two or more different myocyte preparations. For each cell, twenty or more contractility transients at basal (defined as 1 min prior to compound infusion) and after compound addition (defined as 5 min after starting compound perfusion), were averaged and compared. These average transients were analyzed using the IonWizard software (IonOptix) to determine changes in diastolic length and fractional shortening. Fractional shortening was calculated as: ((resting length−length at peak contraction) divided by the resting length). The percent change in fractional shortening from baseline was calculated as: ((post-dose fractional shortening/basal fractional shortening)*100). The percent reduction in fractional shortening from baseline was calculated as: (100−percent change in fractional shortening from baseline). Maximum contraction and relaxation velocities (um/sec) was also determined. Results from individual cells are averaged and the SEM calculated.

[2] = target: bovine cardiac myofibrils (full-length cardiac myosin ATPase in the native sarcomere) (Bos taurus (Bovine), UniProt Q9BE39); assay: Skinned bovine cardiac myofibril ATPase assay (PK/LDH-coupled); assay type: biochemical; conditions: Ca2+ activating to 75% of maximal rate; for CDMF75 IC15: concentration giving 15% inhibition; for IC50: read-out: CDMF75 IC50
In short: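 Triton-skinned bovine left-ventricle myofibrils (1 mg/mL) in PM 12 buffer (12 mM PIPES, 2 mM MgCl2, pH 6.8) with 50 μM ATP, 0.6 mM EGTA and CaCl2 set for 50% or 75% activation. Steady-state ATPase inhibition followed by PK/LDH-coupled NADH oxidation at 340 nm.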

[3] = test system: rat cardiac contractility (left ventricle fractional shortening); assay: Echocardiography of acute effect on rat cardiac contractility, oral gavage; assay type: in vivo, Sprague Dawley rats; conditions: for inhibition in vivo at 10 mg/kg / IC50 / inhibition in vivo at 6 mg/kg / inhibition in vivo at 2 mg/kg / inhibition in vivo at 4.5 mg/kg: Rattus norvegicus; for inhibition in vivo at 10 mg/kg / inhibition in vivo at 6 mg/kg / inhibition in vivo at 2 mg/kg / inhibition in vivo at 4.5 mg/kg: oral gavage; for IC50 / IC10: oral dosing, estimated; for IC50: plasma concentration at which fractional shortening is 50% of pre-dose baseline; for IC10: plasma concentration at which
Description: (§1) Assessment of in vivo cardiac function by echocardiography was performed in male Sprague Dawley rats under isoflurane (1-3%) anesthesia. 2-D M-mode images of the left ventricle were acquired in the parasternal long-axis view before, during, and after administration of compounds by continuous IV infusion or oral gavage. In vivo fractional shortening was determined by M-mode image analysis with the following calculation: ((End diastolic diameter−end systolic diameter)/end diastolic diameter×100). For continuous IV infusion experiments, three pre-dose baseline M-mode images were taken at 1 minute intervals prior to infusion of compound. Compounds were formulated in 50% Propylene Glycol (PG): 16% Captisol: 10% dimethylacetamide (DMA) and delivered via a jugular vein catheter at the rate of 1 mL/kg/h. During infusion, M-mode images were taken at 5 minute intervals. The infusion stopped when fractional shortening reached up to a 60% reduction from baseline. Blood samples were taken to determine the plasma concentration of the compounds. Data was reported as an estimated IC50 value, which is the concentration at which fractional shortening is 50% of the pre-dose baseline contractility.
For oral dosing studies, three pre-dose baseline M-Mode images were taken at 1 minute intervals prior to compound administration. Compounds were formulated in a 0.5% hydroxypropyl methylcellulose 2910 (HPMC 2910): 0.1% Tween 80 suspension and delivered as a single dose (5 mL/kg) by oral gavage. Rats were lightly anesthetized for M-Mode echocardiography measurements at select time points over a 24 hour period. Different dose levels were evaluated for each compound. The compound effect on cardiac fractional shortening at the highest dose evaluated is presented in Table D as a percent reduction of baseline fractional shortening (=100%).
Concurrent with echocardiography measurements, blood samples were taken to determine the corresponding compound plasma concentration.

[4] = test system: rat cardiac contractility (left ventricle fractional shortening); assay: Echocardiography of acute effect on rat cardiac contractility, continuous IV infusion; assay type: in vivo, Sprague Dawley rats; conditions: Rattus norvegicus, plasma concentration at which fractional shortening is 50% of pre-dose baseline, estimated, read-out: IC50 (Mean ± S.D.)
Description: as §1

[5] = 1 h, 1-2 h post dose, read-out: FS (% reduction from baseline) at 1-2 h post dose (Mean ± S.D.)
[6] = 4 h post dose, read-out: FS (% reduction from baseline) at 4 h post dose (Mean ± S.D.)

Chain of bovine cardiac myofibrils (full-length cardiac myosin ATPase in the native sarcomere) (Q9BE39 whole entry): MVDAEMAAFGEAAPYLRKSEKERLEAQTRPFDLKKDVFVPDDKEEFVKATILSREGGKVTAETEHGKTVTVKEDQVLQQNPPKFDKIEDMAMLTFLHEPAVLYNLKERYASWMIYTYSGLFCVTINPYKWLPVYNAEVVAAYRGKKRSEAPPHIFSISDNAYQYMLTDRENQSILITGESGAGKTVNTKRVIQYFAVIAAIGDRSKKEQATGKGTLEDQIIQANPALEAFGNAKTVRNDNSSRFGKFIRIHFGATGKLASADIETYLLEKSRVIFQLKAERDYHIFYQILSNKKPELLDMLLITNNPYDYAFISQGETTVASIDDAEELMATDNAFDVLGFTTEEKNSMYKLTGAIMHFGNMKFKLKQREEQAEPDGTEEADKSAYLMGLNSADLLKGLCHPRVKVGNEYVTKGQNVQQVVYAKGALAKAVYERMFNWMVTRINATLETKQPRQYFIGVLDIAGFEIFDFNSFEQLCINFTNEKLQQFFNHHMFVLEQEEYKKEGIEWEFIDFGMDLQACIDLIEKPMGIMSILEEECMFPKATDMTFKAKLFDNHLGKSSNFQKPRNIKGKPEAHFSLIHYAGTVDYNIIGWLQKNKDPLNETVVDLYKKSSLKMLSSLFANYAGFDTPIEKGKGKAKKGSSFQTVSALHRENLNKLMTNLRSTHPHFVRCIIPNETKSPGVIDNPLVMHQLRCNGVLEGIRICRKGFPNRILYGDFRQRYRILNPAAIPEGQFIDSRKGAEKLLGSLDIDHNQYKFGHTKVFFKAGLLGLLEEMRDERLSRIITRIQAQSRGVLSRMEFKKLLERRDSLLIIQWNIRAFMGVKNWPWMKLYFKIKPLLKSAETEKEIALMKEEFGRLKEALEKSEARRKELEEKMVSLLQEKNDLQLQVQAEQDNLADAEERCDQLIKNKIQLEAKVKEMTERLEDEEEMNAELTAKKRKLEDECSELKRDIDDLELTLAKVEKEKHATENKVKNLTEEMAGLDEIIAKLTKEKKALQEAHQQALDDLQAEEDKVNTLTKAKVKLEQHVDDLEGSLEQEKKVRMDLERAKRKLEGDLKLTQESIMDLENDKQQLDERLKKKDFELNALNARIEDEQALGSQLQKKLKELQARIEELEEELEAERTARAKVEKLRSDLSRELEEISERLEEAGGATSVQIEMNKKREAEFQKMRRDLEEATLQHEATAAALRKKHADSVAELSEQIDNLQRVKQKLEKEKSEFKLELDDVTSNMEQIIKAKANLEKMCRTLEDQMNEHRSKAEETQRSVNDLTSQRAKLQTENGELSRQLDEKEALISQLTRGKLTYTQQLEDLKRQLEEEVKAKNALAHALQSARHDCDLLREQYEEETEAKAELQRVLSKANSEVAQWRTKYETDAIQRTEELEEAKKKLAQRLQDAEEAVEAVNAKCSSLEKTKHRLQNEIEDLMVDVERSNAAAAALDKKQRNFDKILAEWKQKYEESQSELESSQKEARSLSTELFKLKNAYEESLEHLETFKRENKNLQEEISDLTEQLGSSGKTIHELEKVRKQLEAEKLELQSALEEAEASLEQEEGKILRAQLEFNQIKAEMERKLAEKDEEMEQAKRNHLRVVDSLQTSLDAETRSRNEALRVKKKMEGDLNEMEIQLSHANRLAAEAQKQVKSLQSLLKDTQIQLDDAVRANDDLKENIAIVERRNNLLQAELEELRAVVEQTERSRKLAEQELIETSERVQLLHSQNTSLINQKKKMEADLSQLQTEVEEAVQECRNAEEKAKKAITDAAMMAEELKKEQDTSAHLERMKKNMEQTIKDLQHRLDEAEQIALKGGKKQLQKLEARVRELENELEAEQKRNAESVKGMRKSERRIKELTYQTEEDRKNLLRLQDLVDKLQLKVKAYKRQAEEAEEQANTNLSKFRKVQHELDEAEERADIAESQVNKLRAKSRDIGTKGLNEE
Chain of bovine cardiac myofibrils (full-length cardiac myosin ATPase in the native sarcomere) (P85100 whole entry partner): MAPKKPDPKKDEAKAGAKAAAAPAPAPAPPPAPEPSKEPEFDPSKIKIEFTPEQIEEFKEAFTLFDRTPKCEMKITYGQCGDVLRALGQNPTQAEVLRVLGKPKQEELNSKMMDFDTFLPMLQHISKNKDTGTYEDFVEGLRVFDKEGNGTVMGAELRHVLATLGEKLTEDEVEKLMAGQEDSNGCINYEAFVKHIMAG
Chain of bovine cardiac myofibrils (full-length cardiac myosin ATPase in the native sarcomere) (Q3SZE5 whole entry partner): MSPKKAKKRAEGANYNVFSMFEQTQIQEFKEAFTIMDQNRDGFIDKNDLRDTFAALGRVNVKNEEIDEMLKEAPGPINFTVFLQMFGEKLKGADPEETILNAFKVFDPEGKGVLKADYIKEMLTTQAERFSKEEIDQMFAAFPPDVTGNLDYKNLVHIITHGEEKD

`Cc1cc(C(=O)NC2CCc3cc(-c4noc(C(F)F)n4)ccc32)ccn1` (stereo not drawn) [Compound 5, N-(5-(5-(difluoromethyl)-1,2,4-oxadiazol-3-yl)-2,3-dihydro-1H-inden-1-yl)-2-methylisonicotinamide] was tested, and the inhibition at 10 µM [1] was 73.2 ± 7.1%, the “CDMF75 IC15” value [2] was 1140 nM and the IC50 [2] was 5100 nM.

With `Cc1cc(C(=O)N[C@@H]2CCc3cc(-c4noc(C)n4)ccc32)ccn1` [Compound 31, (R)-2-methyl-N-(5-(5-methyl-1,2,4-oxadiazol-3-yl)-2,3-dihydro-1H-inden-1-yl)isonicotinamide] the inhibition at 10 µM [1] was 23.3 ± 18.9%, the “CDMF75 IC15” value [2] was 1000 nM and the IC50 [2] was 3600 nM.

In the case of `Cn1nnc(C(=O)N[C@@H]2CCc3cc(-c4noc(C(F)F)n4)ccc32)n1` [Compound 82, (R)-N-(5-(5-(difluoromethyl)-1,2,4-oxadiazol-3-yl)-2,3-dihydro-1H-inden-1-yl)-2-methyl-2H-tetrazole-5-carboxamide], the inhibition at 10 µM [1] is reported as 89.6%, the “CDMF75 IC15” value [2] is reported as 500 nM and the IC50 [2] is reported as 2000 nM. The inhibition in vivo at 10 mg/kg [3, 5] was 65 ± 6%, the IC50 [3] was 4900 nM and the inhibition in vivo at 10 mg/kg [3, 6] was 55 ± 8%. For the same compound, the IC10 [3] was 1500 nM.

`Cc1ncc(C(=O)N[C@@H]2CCc3cc(-c4noc(C(F)F)n4)ccc32)o1` [Compound 100, (R)—N-(5-(5-(difluoromethyl)-1,2,4-oxadiazol-3-yl)-2,3-dihydro-1H-inden-1-yl)-2-methyloxazole-5-carboxamide] was tested, and the IC50 [4] was 8100 ± 260 nM, the inhibition at 5 µM [1] was 54.7% and the “CDMF75 IC15” value [2] was 700 nM. It also gave an IC50 [2] of 3000 nM, an inhibition in vivo at 6 mg/kg [3, 5] of 60 ± 4% and an IC50 [3] of 9100 nM. The inhibition in vivo at 6 mg/kg [3, 6] was 40 ± 3% and the IC10 [3] was 2300 nM.

In the case of `Cc1cnoc1C(=O)N[C@@H]1CCc2cc(-c3noc(C(C)C)n3)ccc21` [Compound 116, (R)-N-(5-(5-isopropyl-1,2,4-oxadiazol-3-yl)-2,3-dihydro-1H-inden-1-yl)-4-methylisoxazole-5-carboxamide], the inhibition at 10 µM [1] is reported as 72.5%, the “CDMF75 IC15” value [2] is reported as 300 nM and the IC50 [2] is reported as 1500 nM.

`Cn1nccc1C(=O)N[C@@H]1COc2cc(-c3noc(C(F)F)n3)ccc21` [Compound 124, (S)—N-(6-(5-(difluoromethyl)-1,2,4-oxadiazol-3-yl)-2,3-dihydrobenzofuran-3-yl)-1-methyl-1H-pyrazole-5-carboxamide] was tested, and the IC50 [4] was 700 ± 20 nM, the inhibition at 10 µM [1] was 84.6% and the “CDMF75 IC15” value [2] was 300 nM. For the same compound, the IC50 [2] was 900 nM.

`CCc1nc(-c2ccc3c(c2)CC[C@H]3NC(=O)c2cnn(C)c2)no1` [Compound 184, (R)—N-(5-(5-ethyl-1,2,4-oxadiazol-3-yl)-2,3-dihydro-1H-inden-1-yl)-1-methyl-1H-pyrazole-4-carboxamide] was tested, and the IC50 [4] was 7200 ± 200 nM, the inhibition at 5 µM [1] was 67.4% and the inhibition in vivo at 2 mg/kg [3, 5] was 43 ± 9%. It also gave an IC50 [3] of 7900 nM, an inhibition in vivo at 2 mg/kg [3, 6] of 31 ± 9% and an IC10 [3] of 800 nM.

In the case of `CCc1nc(-c2ccc3c(c2)OC[C@H]3NC(=O)c2cnn(C)c2)no1` [Compound 238, (S)—N-(6-(5-ethyl-1,2,4-oxadiazol-3-yl)-2,3-dihydrobenzofuran-3-yl)-1-methyl-1H-pyrazole-4-carboxamide], the IC50 [4] is reported as 5700 ± 310 nM, the “CDMF75 IC15” value [2] is reported as 300 nM and the IC50 [2] is reported as 1000 nM. It also gave an inhibition in vivo at 2 mg/kg [3, 5] of 52 ± 10%, an IC50 [3] of 4900 nM and an inhibition in vivo at 2 mg/kg [3, 6] of 59 ± 6%. The IC10 [3] was 900 nM.

`CCc1cc(-c2ccc3c(c2)CC[C@H]3NC(=O)c2nnn(C)n2)no1` [Compound 253, (R)—N-(5-(5-ethylisoxazol-3-yl)-2,3-dihydro-1H-inden-1-yl)-2-methyl-2H-tetrazole-5-carboxamide] was tested, and the IC50 [4] was 1700 ± 80 nM, the “CDMF75 IC15” value [2] was 300 nM and the IC50 [2] was 800 nM. For the same compound, the inhibition in vivo at 6 mg/kg [3, 5] was 56 ± 9%, the IC50 [3] was 1300 nM and the inhibition in vivo at 6 mg/kg [3, 6] was 33 ± 7%. For the same compound, the IC10 [3] was 300 nM.

For `CCc1nc(-c2ccc3c(c2)CC[C@H]3NC(=O)c2ccnc(C)c2)no1` [Compound 387, (R)-N-(5-(5-ethyl-1,2,4-oxadiazol-3-yl)-2,3-dihydro-1H-inden-1-yl)-2-methylisonicotinamide], the IC50 [4] was 2400 ± 80 nM, the “CDMF75 IC15” value [2] was 500 nM and the IC50 [2] was 1300 nM. For the same compound, the inhibition in vivo at 6 mg/kg [3, 5] was 59 ± 24%, the IC50 [3] was 1600 nM and the inhibition in vivo at 6 mg/kg [3, 6] was 50 ± 18%. The IC10 [3] was 400 nM.

With `CCc1nc(-c2ccc3c(c2)CC[C@H]3NC(=O)c2cnn(CCO)c2)no1` [Compound 474, (R)—N-(5-(5-ethyl-1,2,4-oxadiazol-3-yl)-2,3-dihydro-1H-inden-1-yl)-1-(2-hydroxyethyl)-1H-pyrazole-4-carboxamide] the inhibition at 10 µM [1] was 75.2%, the “CDMF75 IC15” value [2] was 600 nM and the IC50 [2] was 2200 nM. For the same compound, the inhibition in vivo at 6 mg/kg [3, 5] was 64 ± 8%, the IC50 [3] was 1400 nM and the inhibition in vivo at 6 mg/kg [3, 6] was 27 ± 6%. For the same compound, the IC10 [3] was 200 nM.

`CCc1nc(-c2ccc3c(c2)CC[C@H]3NC(=O)c2cnn(C[C@@H](C)O)c2)no1` [Compound 542, N-[(1R)-5-(5-ethyl-1,2,4-oxadiazol-3-yl)-2,3-dihydro-1H-inden-1-yl]-1-[(2R)-2-hydroxypropyl]-1H-pyrazole-4-carboxamide] was tested, and the inhibition at 10 µM [1] was 68.4%, the “CDMF75 IC15” value [2] was 900 nM and the IC50 [2] was 3500 nM. It also gave an inhibition in vivo at 4.5 mg/kg [3, 5] of 71 ± 1%, an IC50 [3] of 3500 nM and an inhibition in vivo at 4.5 mg/kg [3, 6] of 54 ± 7%. For the same compound, the IC10 [3] was 900 nM.
